pIC50: −log10 of the molar value. Where two headings read alike, the source gives them in different places.
Legend:
Experiment in all cases: biochemical
Type in all cases: binding
[1] = biological target: HLA-DRB1*01:01 (Homo sapiens, UniProt P01903+P01911, A100R/D57E/F55L/F60I/F76Y/I96L/L162R/M171V/P40L/Q125E/R42F/V115G/Y59C)
[2] = biological target: HLA-DRB1*03:01 (Homo sapiens, UniProt P01903+P01911, A100K/A102G/A103R/A169T/F55Y/I96L/K41T/L162R/M171V/P40S/Q125H/Q178H/Q39Y/R42S/S66N/T106N/T262R/W38E/Y61H)
[3] = biological target: HLA-DRB1*04:01 (Homo sapiens, UniProt P01903+P01911, A100K/A169T/F76Y/I96L/K127E/L162R/M171V/N62H/P40V/Q125Y/R42H/S133A/S149N/S66Y/V115G/V209L/W38E)
[4] = biological target: HLA-DRB1*04:05 (Homo sapiens, UniProt P01903+P01911, A100R/A169T/D86S/F76Y/I96L/K127E/L162R/M171V/N62H/P40V/Q125Y/R42H/S133A/S149N/S66Y/V115G/V209L/W38E)
[5] = biological target: HLA-DRB1*07:01 (Homo sapiens, UniProt P01903+P01911, A100R/A102G/A103Q/D57E/D86V/E43K/F76Y/K127E/L162R/M171V/P40G/Q125H/Q99D/R33Q/R42Y/R54Q/S133A/S66F/T210M/V115G/Y107V/Y59L/Y89S)
[6] = biological target: HLA-DRB1*08:02 (Homo sapiens, UniProt P01903+P01911, A100R/A103L/A169T/F76Y/H45Y/I96F/K41T/L162R/M171V/P40S/Q125H/Q178H/Q39Y/Q99D/R218S/R42G/S66Y/V115G/W38E)
[7] = biological target: HLA-DRB1*09:01 (Homo sapiens, UniProt P01903+P01911, A100R/A103E/D57H/D86V/F55Y/F60I/F76Y/I96F/K127E/L162R/M171V/P40D/Q125H/Q99R/R33Q/R42F/S133A/S66N/T210M/V115G/W38K/Y107V/Y59G/Y89S)
[8] = biological target: HLA-DRB1*11:01 (Homo sapiens, UniProt P01903+P01911, A100R/A169T/A87E/I96F/K41T/L162R/M171V/P40S/Q125H/Q178H/Q39Y/Q99D/R42S/S66Y/T262R/V115G/W38E)
[9] = biological target: HLA-DRB1*12:01 (Homo sapiens, UniProt P01903+P01911, A100R/A169T/D57E/D86V/F55L/H45Y/K41T/L162R/M171V/P40S/Q125H/Q178H/Q39Y/Q99D/R42G/S66L/T262R/V114A/V67L/W38E/Y59H/Y61H/Y89S)
[10] = biological target: HLA-DRB1*13:02 (Homo sapiens, UniProt P01903+P01911, A100E/A169T/K41T/L162R/M171V/P40S/Q125H/Q178H/Q39Y/Q99D/R42S/S66N/T262R/V115G/W38E/Y61H)
[11] = biological target: HLA-DRB1*15:01 (Homo sapiens, UniProt P01903+P01911)

Chain of HLA-DRB1*13:02 (P01903 26-254 limits assumed, other chains not shown): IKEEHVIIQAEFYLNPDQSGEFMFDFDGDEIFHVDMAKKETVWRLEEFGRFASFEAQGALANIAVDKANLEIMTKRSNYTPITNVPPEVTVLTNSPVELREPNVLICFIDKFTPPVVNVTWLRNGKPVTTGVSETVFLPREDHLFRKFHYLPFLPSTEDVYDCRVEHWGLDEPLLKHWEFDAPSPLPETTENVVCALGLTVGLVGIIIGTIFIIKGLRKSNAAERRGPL
Chain of HLA-DRB1*11:01 (P01903 26-254 limits assumed, other chains not shown): as above
Chain of HLA-DRB1*03:01 (P01903 26-254, other chains not shown): as the sequence (P01903 26-254 limits assumed, other chains not shown) above

| SMILES | pIC50 [1] | pIC50 [2] | pIC50 [3] | pIC50 [4] | pIC50 [5] | pIC50 [6] | pIC50 [7] | pIC50 [8] | pIC50 [9] | pIC50 [10] | pIC50 [11] | pIC50 ([1]; read-out: in vitro binding capacity (IC50), DRB1*01:01) |
| --- | --- | --- | --- | --- | --- | --- | --- | --- | --- | --- | --- | --- |
| CC[C@H](C)[C@H](NC(=O)[C@H](CCCNC(=N)N)NC(=O)[C@H](CCCCN)NC(=O)[C@H](CCCNC(=N)N)NC(=O)[C@H](CC(N)=O)NC(=O)[C@H](Cc1c[nH]c2ccccc12)NC(=O)[C@H](C)NC(=O)[C@H](Cc1ccc(O)cc1)NC(=O)[C@@H](NC(=O)[C@H](CO)NC(=O)[C@H](C)NC(=O)[C@H](Cc1ccccc1)NC(=O)[C@@H](N)CCCNC(=N)N)C(C)C)C(=O)N[C@@H](CO)C(=O)N[C@@H](CC(N)=O)C(=O)O [compound 70] | 5.23 | < 4.40 | 5.10 | 5.20 | 6.27 | 7.19 | 5.86 | 8.41 | 4.50 | < 4.40 | 6.87 |  |
| CC[C@H](C)[C@H](N)C(=O)N1CCC[C@H]1C(=O)N[C@@H](Cc1ccccc1)C(=O)N[C@@H](C)C(=O)N[C@@H](CCSC)C(=O)N[C@@H](CCC(N)=O)C(=O)N[C@@H](CCSC)C(=O)N[C@@H](C)C(=O)N[C@@H](Cc1ccc(O)cc1)C(=O)N[C@@H](CCCNC(=N)N)C(=O)N[C@@H](Cc1ccccc1)C(=O)N[C@@H](CC(N)=O)C(=O)NCC(=O)N[C@H](C(=O)NCC(=O)O)[C@@H](C)CC [peptide 180] | 7.24 | 4.93 | 6.35 | 5.79 | 7.60 | 6.26 | 8.10 | 7.64 | 8.66 | 4.86 | 6.72 |  |
| CC(C)[C@H](N)C(=O)N[C@@H](Cc1ccccc1)C(=O)N[C@@H](CC(N)=O)C(=O)N[C@@H](C)C(=O)N[C@H](C(=O)N[C@@H](CCCNC(=N)N)C(=O)N[C@@H](Cc1ccccc1)C(=O)N[C@@H](C)C(=O)N[C@@H](CO)C(=O)N[C@H](C(=O)N[C@@H](Cc1ccc(O)cc1)C(=O)N[C@@H](C)C(=O)N[C@@H](Cc1c[nH]c2ccccc12)C(=O)N[C@@H](CC(N)=O)C(=O)N[C@@H](CCCNC(=N)N)C(=O)O)C(C)C)[C@@H](C)O [peptide 69] |  | < 4.40 | 6.07 | 6.01 | 8.57 | 5.43 | 6.49 | 6.43 | 6.30 | < 4.40 | 7.92 | 5.99 |
| CC[C@H](C)[C@H](NC(=O)CN)C(=O)N[C@@H](Cc1ccc(O)cc1)C(=O)N[C@@H](CCC(N)=O)C(=O)N[C@H](C(=O)N[C@@H](CO)C(=O)N[C@@H](CC(N)=O)C(=O)N[C@@H](Cc1ccccc1)C(=O)N[C@@H](CCCNC(=N)N)C(=O)N[C@H](C(=O)N[C@@H](CCC(N)=O)C(=O)N1CCC[C@H]1C(=O)N[C@H](C(=O)N[C@@H](CCC(=O)O)C(=O)N[C@@H](CO)C(=O)O)[C@@H](C)O)C(C)C)[C@@H](C)O [compound 63] | 5.62 | < 4.40 | 7.21 | 6.70 | 7.92 | < 4.40 | 6.52 | 5.94 | 5.68 | 4.97 | 7.68 |  |
| CC(C)C[C@H](NC(=O)[C@H](CCCNC(=N)N)NC(=O)[C@H](Cc1ccc(O)cc1)NC(=O)[C@H](CC(C)C)NC(=O)[C@@H](N)Cc1ccc(O)cc1)C(=O)N[C@@H](Cc1ccccc1)C(=O)N[C@@H](CCCNC(=N)N)C(=O)N[C@@H](CCCCN)C(=O)N[C@@H](CO)C(=O)N[C@@H](CC(N)=O)C(=O)N[C@@H](CC(C)C)C(=O)N[C@@H](CCCCN)C(=O)N1CCC[C@H]1C(=O)N[C@@H](Cc1ccccc1)C(=O)N[C@@H](CCC(=O)O)C(=O)O [peptide 91] | 5.13 | < 4.40 | 6.23 | 6.27 | 6.24 | 7.64 | 7.89 | 8.38 | 6.49 | 5.07 | 8.77 |  |
| CC(C)C[C@H](NC(=O)[C@H](C)NC(=O)[C@H](CC(C)C)NC(=O)[C@H](CC(C)C)NC(=O)[C@@H](NC(=O)[C@H](CCC(N)=O)NC(=O)[C@H](Cc1ccccc1)NC(=O)[C@H](CCCNC(=N)N)NC(=O)[C@@H](N)[C@@H](C)O)[C@@H](C)O)C(=O)N[C@@H](Cc1c[nH]cn1)C(=O)N[C@@H](CCCNC(=N)N)C(=O)N[C@@H](CO)C(=O)N[C@@H](Cc1ccc(O)cc1)C(=O)N[C@@H](CC(C)C)C(=O)N[C@H](C(=O)O)[C@@H](C)O [peptide 48] | 7.42 | 4.86 | 6.47 | 6.10 | 8.41 | 6.75 | 7.96 | 7.85 | 7.74 | 4.52 | 8.30 |  |
| CC[C@H](C)[C@H](NC(=O)[C@H](CCCCN)NC(=O)[C@@H](N)Cc1ccccc1)C(=O)N[C@@H](Cc1ccc(O)cc1)C(=O)N[C@@H](CO)C(=O)N[C@@H](CCCCN)C(=O)N[C@@H](Cc1c[nH]cn1)C(=O)N[C@H](C(=O)N1CCC[C@H]1C(=O)N[C@H](C(=O)N[C@@H](CC(N)=O)C(=O)N[C@@H](CC(C)C)C(=O)N[C@H](C(=O)N[C@@H](CCCNC(=N)N)C(=O)N[C@@H](CC(=O)O)C(=O)O)C(C)C)[C@@H](C)CC)[C@@H](C)O [peptide 41] | 7.19 | < 4.40 | 5.28 | 4.79 | 8.57 | 6.90 | 7.89 | 6.64 | 5.14 | 5.04 | 6.21 |  |
| CSCC[C@H](NC(=O)[C@H](CC(C)C)NC(=O)[C@H](Cc1ccccc1)NC(=O)[C@@H]1CCCN1C(=O)[C@H](CCC(N)=O)NC(=O)[C@H](CO)NC(=O)[C@@H](NC(=O)[C@H](Cc1ccc(O)cc1)NC(=O)[C@H](CCC(=O)O)NC(=O)[C@H](Cc1ccccc1)NC(=O)[C@@H](NC(=O)[C@@H](N)CS)[C@@H](C)O)C(C)C)C(=O)N[C@@H](CC(=O)O)C(=O)N[C@@H](CC(C)C)C(=O)N[C@@H](CCC(=O)O)C(=O)O [peptide 34] | 6.31 | 5.23 | 5.94 | 7.80 |  | 5.83 |  | 5.47 | 6.38 |  | 5.14 |  |
| CC(C)[C@H](NC(=O)CNC(=O)[C@H](Cc1ccc(O)cc1)NC(=O)[C@H](CS)NC(=O)[C@H](CCCCN)NC(=O)[C@H](Cc1ccccc1)NC(=O)[C@@H](NC(=O)[C@H](CO)NC(=O)[C@H](Cc1ccccc1)NC(=O)[C@H](CO)NC(=O)[C@H](C)NC(=O)[C@@H](N)CO)[C@@H](C)O)C(=O)N[C@@H](CO)C(=O)N1CCC[C@H]1C(=O)N[C@H](C(=O)O)[C@@H](C)O [peptide 75] | 5.28 | < 4.40 | 5.48 | 6.25 | 6.28 | 5.33 | 6.93 | 6.20 | 4.94 | < 4.40 | 6.15 |  |
| CC[C@H](C)[C@H](NC(=O)[C@H](CC(=O)O)NC(=O)CNC(=O)[C@H](CC(C)C)NC(=O)[C@H](CS)NC(=O)[C@H](CC(=O)O)NC(=O)CNC(=O)[C@H](Cc1ccc(O)cc1)NC(=O)[C@H](CCC(N)=O)NC(=O)[C@H](CCCCN)NC(=O)[C@@H](NC(=O)[C@H](Cc1ccccc1)NC(=O)CNC(=O)[C@H](C)N)[C@@H](C)CC)C(=O)N[C@@H](C)C(=O)O [peptide 167] | 5.96 |  | 6.08 | 6.02 | 6.13 | 4.65 | 5.81 | 5.43 | 4.77 |  | 6.15 |  |
